Measurements: patent US11197881B2 (CALIFORNIA INSTITUTE OF TECHNOLOGY, priority 2016, dated 2021)
Entries after “also recorded” stand apart in the source; their conditions may differ.

Experiments:
[1] = tested on: mouse lymphatic fibroblast (MLF) cells; settings: 1 uM, FIG. 7E
Description: With reference to FIG. 7E, MLF cells having a silenced X chromosome were assayed for reactivation of the Gpc4 gene after incubation with SAHA at 2 uM, RGFP966 at 3 uM, RG2833 (RGFP109) at 300 nM, PCI-24781 (Abexinostat) at 300 nM, CUDC-101 at 400 nM, Resminostat at 100 nM, Mocetinostat (MGCD0103) at 10 uM, HPOB (4-[(hydroxyamino)carbonyl]-N-(2-hydroxyethyl)-N-phenyl-benzeneacetamide) at 5 uM, Entinostat (MS0275) at 2 uM, Droxinostat at 20 uM, 4SC-202 at 2 uM, Trichostatin A (TSA) at 5 uM, Rocilinostat (ACY-1215) at 100 nM, Quisinostat (JNJ-26481585) at 100 nM, or Pracinostat (SB939) at 1 uM.
5,000 Mouse MLF cells were plated on a poly-D-lysine (Sigma) and 0.2% gelatin (Sigma)-coated #1.5 coverslip placed into wells of a 24-well plate containing HEK media (DMEM, 10% Gemini Benchmark FBS, 1×L-glutamine, 1× sodium pyruvate, 1×NEAA, lx Pen/Strep; Life Technologies unless otherwise indicated). After 16 hours, inhibitors were added into the media and incubated the cells for 48 hours. Unless, otherwise indicated, the inhibitors and the concentration used were: 5-Azacytidine (6 μM; Sigma, A2385), 5-Aza-2′-deoxycytidine (0.3 μM; Sigma, A3656), RG 108 (200 μM; Abcam, ab141013), Trichostatin A (5 μM; Sigma, T8552), and Scriptaid (100 nM; Sigma, S7817).

human fibroblast cells = assay: X chromosome reactivation (active PGK1 loci, MeCP2 mRNA) in human fibroblast cells having a silenced X chromosome; format: cell-based; settings: for percentage of reactivated human fibroblasts (active PGK1 loci) with treatment time: simultaneous treatment with 5-aza-2'-dc, 48 h, 72 h, 7 days, FIG. 7F; for activation of the silenced X chromosome: simultaneous treatment with DNMT1 inhibitor 5-aza-2'-dc, human fibroblast cells
Description: (§1) FIG. 7F is a graph of the percentage of reactivated cells (measured as the number of active phosphoglycerate kinase 1 (PGK1) loci for a population of 50 human fibroblast cells having a silenced X chromosome after the simultaneous treatment of DMSO (as a control), the DNMT1 inhibitor (5-aza-2-dc) and the HDAC inhibitor SAHA or RGFP966 for 48 hours (h), 72 hours, and 7 days as indicated, with the number of active PGK1 loci greater than 2 shown in grey, the number of PGK1 loci equal to 2 shown in orange, and the number of PGK1 loci equal to 1 shown in blue, according to embodiments of the present invention.
FIG. 7G is a graph quantifying the expression level of MeCP2 mRNA (relative to control) of reactivated human fibroblast cells having a silenced X chromosome after simultaneous treatment with DMSO (control), the DNMT1 inhibitor (5-aza-2-dc) and the HDAC inhibitor SAHA or RGFP966 for 7 days for a population of 50 cells, according to embodiments of the present invention.
(§2) Cells were stained for target mRNAs (e.g., X-linked Gpc4 mRNA, X-linked MeCP2 mRNA, or as indicated) and siRNA-targeted mRNA by FISH and imaged. Images were then analyzed using Matlab R2013b (described below). In the case of siRNA targeting, cells were selected if the copy number of the targeted mRNA was less than 30% of the level of the no siRNA treated cells and if they induced Xist expression. Within these cells, the copy number of target mRNAs were quantified using a peak finding method (described below) and compared across conditions. The mRNA levels were quantified for 50 individual cells.
The number of active X chromosomes was determined by RNA FISH with probes against the intronic region of Pgk1/PGK1 RNA using smFISH. The spots were then identified using a 2D peak finding algorithm that identifies local maximal signals within the cell. Once regional maxima were identified, the number of spots was counted for each cell. Cells were selected in the G1 phase of the cell cycle by co-immunostaining the cells with Cyclin E antibodies (Abcam; ab33911 for mouse cells; ab32103 for human cells) and selecting Cyclin E positive cells.

[2] = tested on: human iPS-derived neurons; assay: X chromosome reactivation (PGK1 and MeCP2 mRNA staining) in human iPS-derived neurons having a silenced X chromosome; format: cell-based; settings: simultaneous treatment with DNMT1 inhibitor 5-aza-2'-dc
Excerpt: FIG. 7K is a graph quantifying the expression level of MeCP2 mRNA in human iPSC-derived neurons having a silenced X chromosome after simultaneous treatment with the DNMT1 inhibitor (5-aza-2-dc) and the HDAC inhibitor SAHA for 7 days for a population of 50 cells, with the relative expression calculated by normalizing the neurons (two spots of active PGK1 loci) to non-reactivated (treated) neurons (one spot of active PGK1 locus), according to embodiments of the present invention.
as §2
The number of active X chromosomes was determined by RNA FISH with probes against the intronic region of Pgk1/PGK1 RNA using smFISH. […] Once regional maxima were identified, the number of spots was counted for each cell. […]

[3] = tested on: mouse post-mitotic neurons; assay: X chromosome reactivation (active PGK1 loci, MeCP2 mRNA) in mouse post-mitotic neurons having a silenced X chromosome; format: cell-based; settings: simultaneous treatment with DNMT1 inhibitor 5-aza-2'-dc
Description: as §1, with “7H” for “7F”, “mouse post-mitotic neuronal” for “human fibroblast”
FIG. 7I is a graph quantifying the expression level of MeCP2 mRNA in mouse post-mitotic neurons having a silenced X chromosome after simultaneous treatment with DMSO (control), the DNMT1 inhibitor (5-aza-2-dc) and the HDAC inhibitor SAHA or RGFP966 for 7 days for a population of 50 cells, with the relative expression calculated by normalizing reactivated female post-mitotic neurons to male post-mitotic neurons, according to embodiments of the present invention.
Cells were stained for target mRNAs (e.g., X-linked Gpc4 mRNA, X-linked MeCP2 mRNA, or as indicated) and siRNA-targeted mRNA by FISH and imaged. Images were then analyzed using Matlab R2013b (described below). […] The mRNA levels were quantified for 50 individual cells. […]

[4] = tested on: mouse lymphatic fibroblast (MLF) cells; assay: X-chromosome reactivation assay (single molecule RNA FISH of X-linked mRNA) in MLF cells having silenced X genes; format: cell-based; settings: for reactivation of silenced X-chromosome gene Gpc4 (Gpc4 mRNA) compared with Scriptaid alone: in combination with one of the DNMT1 inhibitors 5-aza, 5-aza-2'-dc, RG108 or SGI-1027, FIGS. 7A-7B
Description: Coverslips from siRNA transfection or inhibitor treatment were fixed in Histochoice (Sigma) for 10 min, washed thoroughly in PBS, and dehydrated in ethanol for storage until FISH staining. Single molecule RNA Fluorescence in situ hybridization (FISH) experiments were done using QuantiGene ViewRNA ISH Cell Assay (Affymetrix) and QuantiGene ViewRNA ISH Cell 740 Module (Affymetrix) according to manufacturer's protocol. Specifically, cells fixed on coverslips were first permeabilized with Detergent Solution QC at room temperature for 5 min, and then incubated with desired mixture of probe set (Affymetrix) in Probe Set Diluent QF at 40° C. for 3 h, followed by incubated with PreAmplifier Mix at 40° C. for 30 min, Amplifier Mix at 40° C. for 30 min, and Label Probe Mix at 40° C. for 30 min sequentially. For DAPI staining, coverslips were incubated in 30 nM DAPI in PBS at room temperature for 15-20 min. Probe sets and conjugated fluorophores (excitation wavelengths) for FISH were TYPE 4-GPC4, MECP2, SMC1A (488 nm), TYPE 10-ATRX (740 nm), and TYPE 6-EMD (650 nm). Cells were stained for target mRNAs (e.g., X-linked Gpc4 mRNA, X-linked MeCP2 mRNA, or as indicated) and siRNA-targeted mRNA by FISH and imaged. Images were then analyzed using Matlab R2013b (described below). In the case of siRNA targeting, cells were selected if the copy number of the targeted mRNA was less than 30% of the level of the no siRNA treated cells and if they induced Xist expression. Within these cells, the copy number of target mRNAs were quantified using a peak finding method (described below) and compared across conditions. The mRNA levels were quantified for 50 individual cells. All image analysis was carried out using Matlab (version R2013b) utilizing built-in functions from the Image Processing toolbox. […] Once regional maxima were identified, the number of spots was counted for each cell. The percentage of X-reactivation is calculated by normalizing the average number of spots of each condition to the average number of spots in untreated cells, and subtracting the value by 1.

Compound	percentage of reactivated human fibroblasts (active PGK1 loci) with treatment time (human fibroblast cells)	activation of the silenced X chromosome (human fibroblast cells)	activation of the silenced X chromosome [2]	activation of the silenced X chromosome [3]	reactivation of silenced X-chromosome gene Gpc4 (Gpc4 mRNA) compared with Scriptaid alone [4]	further results
CCCCc1nc2cc(/C=C/C(=O)NO)ccc2n1CCN(CC)CC [Pracinostat]						cytotoxicity (cell death) [1]: cytotoxic, causing cell death
Nc1cc(F)ccc1NC(=O)/C=C/c1cnn(C/C=C/c2ccccc2)c1 [RGFP966]	increase in reactivation	activation (or re-activation) of the X chromosome	activation of the X chromosome	activation of the X chromosome		
O=C(CCCCCCC(=O)Nc1ccccc1)NO [SAHA]	increase in reactivation	activation (or re-activation) of the X chromosome	activation of the X chromosome	activation of the X chromosome		
O=C(CCCCCN1C(=O)c2cccc3cccc(c23)C1=O)NO [Scriptaid]					reactivated to a higher level of reactivation	reactivation of the Xist-dependent silent Gpc4 gene as measured by levels of Gpc4 mRNA ([4]; HDAC inhibitor alone, FIGS. 7A-7B): expression of Gpc4; also recorded: reactivation of the Xist-dependent silent Gpc4 gene
CC(/C=C/C(=O)NO)=C\[C@@H](C)C(=O)c1ccc(N(C)C)cc1 [Trichostatin A]					reactivated to a higher level of reactivation	
